Results taken from patent publication US20220062240A1, “METHODS OF TREATING CANCER USING A CLK INHIBITOR” (BioSplice Therapeutics, Inc., priority 2018, published 2022).
pEC50: −log10 of the molar value. Where two headings read alike, the source gives them in different places.

Columns and labels:
CLK2 = molecular target: T1, CLK2 (Homo sapiens, UniProt P49760); test: CLK2 kinase activity assay (Z-lyte, Ser/Thr 6 peptide); format: biochemical; conditions: recombinant CLK2 kinase, ATP 60 μM; read-out: EC50
T1 construct: purchased Thermo Fisher (Life Technologies), Z'-LYTE Kinase Assay Kits
Experimental: All reactions were performed in duplicate.

BT-549 = test: CellTiter-Glo Viability Assay, breast cancer; format: cell-based; conditions: Homo sapiens, 96 h; BT-549, breast cancer, four days; read-out: EC50
CAMA1 = test: CellTiter-Glo Viability Assay, breast cancer; format: cell-based; conditions: Homo sapiens, CAMA-1, 96 h; CAMA1, breast cancer, four days; read-out: EC50
DU4475 = test: CellTiter-Glo Viability Assay, breast cancer; format: cell-based; conditions: Homo sapiens, DU-4475, 96 h; DU4475, breast cancer, four days; read-out: EC50
HCC1599 = test: CellTiter-Glo Viability Assay, breast cancer; format: cell-based; conditions: Homo sapiens, 96 h; HCC1599, breast cancer, four days; read-out: EC50
MCF7 = test: CellTiter-Glo Viability Assay, breast cancer; format: cell-based; conditions: Homo sapiens, 96 h; MCF7, breast cancer, four days; read-out: EC50
MDA-MB-231-Luc = test: CellTiter-Glo Viability Assay, breast cancer; format: cell-based; conditions: Homo sapiens, 96 h; MDA-MB-231-Luc, breast cancer, four days; read-out: EC50
T47D = test: CellTiter-Glo Viability Assay, breast cancer; format: cell-based; conditions: Homo sapiens, 96 h, breast cancer, four days, read-out: EC50
ZR-75-1 = test: CellTiter-Glo Viability Assay, breast cancer; format: cell-based; conditions: Homo sapiens, 96 h; ZR-75-1, breast cancer, four days; read-out: EC50
all 50 cell lines = test: CellTiter-Glo Viability Assay, average across all cell lines; format: cell-based; conditions: Homo sapiens; across all 50 cell lines; read-out: average EC50 for inhibition of cancer cell proliferation
Method in brief: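 Luminescent ATP read-out (CellTiter-Glo) after a 4-day compound exposure at 37° C served as the viability measure. Cells were seeded at 300-3,000/well, compound wells run in duplicate against DMSO controls, and EC50 values came from fitted dose-response curves.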

[1] = test system: colorectal cancer (6 cell lines); test: CellTiter-Glo Viability Assay, colorectal cancer; format: cell-based; conditions: Homo sapiens, inhibition of cancer cell proliferation
[2] = test system: haematopoietic & lymphoid tumors (13 cell lines); test: CellTiter-Glo Viability Assay, haematopoietic & lymphoid tumors; format: cell-based; conditions: Homo sapiens, inhibition of cancer cell proliferation
[3] = test system: liver cancer (3 cell lines); test: CellTiter-Glo Viability Assay, liver cancer; format: cell-based; conditions: Homo sapiens, inhibition of cancer cell proliferation
[4] = test system: lung cancer (4 cell lines); test: CellTiter-Glo Viability Assay, lung cancer; format: cell-based; conditions: Homo sapiens, inhibition of cancer cell proliferation
[5] = test system: ovarian cancer (4 cell lines); test: CellTiter-Glo Viability Assay, ovarian cancer; format: cell-based; conditions: Homo sapiens, inhibition of cancer cell proliferation
[6] = test system: pancreatic cancer (8 cell lines); test: CellTiter-Glo Viability Assay, pancreatic cancer; format: cell-based; conditions: Homo sapiens, inhibition of cancer cell proliferation
[7] = test system: prostate cancer (5 cell lines); test: CellTiter-Glo Viability Assay, prostate cancer; format: cell-based; conditions: Homo sapiens

T1 sequence (P49760 whole entry): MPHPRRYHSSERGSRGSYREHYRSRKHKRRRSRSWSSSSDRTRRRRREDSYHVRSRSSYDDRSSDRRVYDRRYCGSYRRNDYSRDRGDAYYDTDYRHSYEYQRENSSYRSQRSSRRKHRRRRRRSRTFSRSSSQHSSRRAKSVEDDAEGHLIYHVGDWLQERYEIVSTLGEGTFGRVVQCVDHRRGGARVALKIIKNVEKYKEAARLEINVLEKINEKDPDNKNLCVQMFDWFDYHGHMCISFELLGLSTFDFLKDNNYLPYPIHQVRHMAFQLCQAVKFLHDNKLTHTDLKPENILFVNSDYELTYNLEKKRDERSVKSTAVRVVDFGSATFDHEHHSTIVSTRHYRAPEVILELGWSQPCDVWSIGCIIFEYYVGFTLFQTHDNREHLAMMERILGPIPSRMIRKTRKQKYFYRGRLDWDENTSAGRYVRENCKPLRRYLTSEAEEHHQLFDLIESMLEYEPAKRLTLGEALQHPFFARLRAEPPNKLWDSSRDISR

pEC50 (CLK2): 8.72
pEC50 (BT-549): 6.14
pEC50 (CAMA1): 5.91
pEC50 (DU4475): 6.43
pEC50 (HCC1599): 6.19
pEC50 (MCF7): 5.48
pEC50 (MDA-MB-231-Luc): 6.51
pEC50 (T47D): 5.89
pEC50 (ZR-75-1): 6.39
EC50 ([1]; HCT-116, HCT116 cell line, read-out: Colorectal cancer, EC50 (μM) HCT116): 0.156 µM
EC50 ([1]; HT-29, HT29 cell line, read-out: Colorectal cancer, EC50 (μM) HT29): 0.318 µM
EC50 ([1]; SW-620, SW620 cell line, read-out: Colorectal cancer, EC50 (μM) SW620): 0.125 µM
EC50 ([1]; DLD-1 cell line, read-out: Colorectal cancer, EC50 (μM) DLD-1): 0.265 µM
EC50 ([1]; SW48 cell line, read-out: Colorectal cancer, EC50 (μM) SW48): 0.131 µM
EC50 ([1]; SW480 cell line, read-out: Colorectal cancer, EC50 (μM) SW480): 0.19 µM
EC50 ([2]; DND41, DND-41 cell line, read-out: Haematopoietic & Lymphoid tumors, EC50 (μM) DND-41): 0.225 µM
EC50 ([2]; MV4-11, MV-4-11 cell line, read-out: Haematopoietic & Lymphoid tumors, EC50 (μM) MV-4-11): 0.101 µM
EC50 ([2]; Rec1, REC-1 cell line, read-out: Haematopoietic & Lymphoid tumors, EC50 (μM) REC-1): 0.11 µM
EC50 ([2]; SU-DHL-4, SUDHL4 cell line, read-out: Haematopoietic & Lymphoid tumors, EC50 (μM) SUDHL4): 0.498 µM
EC50 ([2]; HL-60 cell line, read-out: Haematopoietic & Lymphoid tumors, EC50 (μM) HL-60): 0.522 µM
EC50 ([2]; JM1 cell line, read-out: Haematopoietic & Lymphoid tumors, EC50 (μM) JM1): 0.122 µM
EC50 ([2]; JURKAT, Clone E6-1 cell line, read-out: Haematopoietic & Lymphoid tumors, EC50 (μM) JURKAT, Clone E6-1): 0.5 µM
EC50 ([2]; JeKo-1 cell line, read-out: Haematopoietic & Lymphoid tumors, EC50 (μM) JeKo-1): 0.458 µM
EC50 ([2]; KASUMI-1 cell line, read-out: Haematopoietic & Lymphoid tumors, EC50 (μM) KASUMI-1): 1 µM
EC50 ([2]; Loucy cell line, read-out: Haematopoietic & Lymphoid tumors, EC50 (μM) Loucy): 0.385 µM
EC50 ([2]; MOLT-4 cell line, read-out: Haematopoietic & Lymphoid tumors, EC50 (μM) MOLT-4): 0.343 µM
EC50 ([2]; TF-1 cell line, read-out: Haematopoietic & Lymphoid tumors, EC50 (μM) TF-1): 0.35 µM
EC50 ([2]; TOLEDO cell line, read-out: Haematopoietic & Lymphoid tumors, EC50 (μM) TOLEDO): 0.132 µM
pEC50 ([3]; SNU-398, SNU398 cell line, read-out: Liver cancer, EC50 SNU398): 6.78
pEC50 ([3]; HEPG2 cell line, read-out: Liver cancer, EC50 HEPG2): 6.43
pEC50 ([3]; PLC/PRF/5 cell line, read-out: Liver cancer, EC50 PLC/PRF/5): 6.06
EC50 ([4]; A-427, A427 cell line, read-out: Lung cancer, EC50 (μM) A427): 0.756 µM
EC50 ([4]; HCC78, HCC-78 cell line, read-out: Lung cancer, EC50 (μM) HCC-78): 0.666 µM
EC50 ([4]; NCI-H460 cell line, read-out: Lung cancer, EC50 (μM) NCI-H460): 0.922 µM
EC50 ([4]; NCI-H522 cell line, read-out: Lung cancer, EC50 (μM) NCI-H522): 0.43 µM
EC50 ([5]; PA-1, PA1 cell line, read-out: Ovarian cancer, EC50 (μM) PA1): 0.195 µM
EC50 ([5]; TOV112D, TOV-112D cell line, read-out: Ovarian cancer, EC50 (μM) TOV-112D): 0.233 µM
EC50 ([5]; OV-90 cell line, read-out: Ovarian cancer, EC50 (μM) OV-90): 0.901 µM
EC50 ([5]; OVCAR-3 cell line, read-out: Ovarian cancer, EC50 (μM) OVCAR-3): 0.406 µM
pEC50 ([6]; BXPC-3, BxPC3 cell line, read-out: Pancreatic cancer, EC50 BxPC3): 6.04
pEC50 ([6]; CAPAN-1, Capan1 cell line, read-out: Pancreatic cancer, EC50 Capan1): 5.99
pEC50 ([6]; Capan-2, Capan2 cell line, read-out: Pancreatic cancer, EC50 Capan2): 5.85
pEC50 ([6]; MIA PaCa-2 cell line, read-out: Pancreatic cancer, EC50 MIA PaCa-2): 6.36
pEC50 ([6]; PANC 05.04 cell line, read-out: Pancreatic cancer, EC50 PANC 05.04): 6.18
pEC50 ([6]; PANC-1 cell line, read-out: Pancreatic cancer, EC50 PANC-1): 5.94
pEC50 ([6]; UPAFII cell line, read-out: Pancreatic cancer, EC50 UPAFII): 6.55
pEC50 ([7]; DU-145, read-out: Prostate cancer EC50 Du-145): 6.13
pEC50 ([7]; PC-3, PC3 cell line, inhibition of cancer cell proliferation, read-out: Prostate cancer EC50 PC3): 6.06
pEC50 ([7]; 22Rv1 cell line, inhibition of cancer cell proliferation, read-out: Prostate cancer EC50 22Rv1): 6.50
pEC50 ([7]; LNCap clone FGC cell line, inhibition of cancer cell proliferation, read-out: Prostate cancer EC50 LNCap clone FGC): 6.37
pEC50 ([7]; VCaP (Sigma) cell line, inhibition of cancer cell proliferation, read-out: Prostate cancer EC50 VCaP (Sigma)): 5.47
SMILES: CN1CCN(c2cc(C(=O)Nc3cc4cc(-c5cnn(C)c5)c(F)cc4cn3)ccn2)CC1 [Compound 69]
pEC50 (all 50 cell lines): 6.20
